Measurements as given in US20260158009A1 (GENZYME CORPORATION, priority 2023, published 2026).

Key:
[1] = target: T1, hRIPK1 (aa 1-375) fusion protein (Homo sapiens, UniProt Q13546); experiment: ADP-Glo kinase assay: catalytic activity of RIPK1 (autophosphorylation, conversion of ATP to ADP); assay type: biochemical
T1 construct: hRIPK1 (aa 1-375) fusion protein
T1 sequence (Q13546 1-375): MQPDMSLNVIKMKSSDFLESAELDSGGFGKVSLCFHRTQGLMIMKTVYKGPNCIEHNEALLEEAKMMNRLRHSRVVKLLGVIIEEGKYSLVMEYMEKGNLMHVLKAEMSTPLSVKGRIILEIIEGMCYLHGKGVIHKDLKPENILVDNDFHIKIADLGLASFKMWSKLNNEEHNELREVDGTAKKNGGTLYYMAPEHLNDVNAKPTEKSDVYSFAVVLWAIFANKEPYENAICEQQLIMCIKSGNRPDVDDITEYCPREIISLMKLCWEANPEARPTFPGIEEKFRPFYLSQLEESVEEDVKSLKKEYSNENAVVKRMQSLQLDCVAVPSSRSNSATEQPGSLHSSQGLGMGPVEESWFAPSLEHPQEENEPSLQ
Summary of the method: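 hRIPK1 (aa 1-375) fusion protein (3.6 μg/ml final) was preincubated 30 min at rt with compound (33300-1.69 nM, 1% DMSO), then 50 μM ATP was added for 240 min at rt. ADP from autophosphorylation was measured by ADP-Glo luminescence and curves fitted by nonlinear regression.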

[2] = tested on: U937 cells; experiment: Cellular assay in U937 cells: activity of RIPK1 inhibitors on TNFα/zVAD.fmk-induced cell death (necroptosis), CellTiter 96 AQueous (MTS) readout; assay type: cell-based; details: Homo sapiens, U-937
Summary of the method: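 Necroptosis was measured by viable-cell MTS reduction (4 h, absorbance 490 nm) after overnight (18–24 h) 37° C culture. Cell suspensions of U937 cells carried TNFα (100 ng/ml) plus zVAD.fmk (50 μM) before compound was added. A 10-point curve (10 μM–0.26 nM or 1 μM–0.07 nM) was run in duplicate, normalised to the control lacking TNFα/zVAD.fmk.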

IC50 [1] [nM]	Structure (SMILES)	IC50 [2] [nM]
19	O=C([C@H]1CC[C@H](Cn2ccc3ncc(F)cc32)CC1)N1OCC[C@H]1c1cc(F)cc(F)c1 [compound 94, trans-((S)-3-(3,5-difluorophenyl)isoxazolidin-2-yl)(4-((6-fluoro-1H-pyrrolo[3,2-b]pyridin-1-yl)methyl)cyclohexyl)methanone]	1
22	N#Cc1cc(F)cc([C@@H]2CCON2C(=O)[C@H]2CC[C@H](Cn3ccc4cc(F)ccc43)CC2)c1 [compound 95, trans-3-fluoro-5-((S)-2-(4-((5-fluoro-1H-indol-1-yl)methyl)cyclohexane-1-carbonyl)isoxazolidin-3-yl)benzonitrile]	4
16	O=C([C@H]1CC[C@H](Cn2ccc3cc(F)ccc32)CC1)N1OCC[C@H]1c1cc(F)cc(F)c1 [compound 96, trans-((S)-3-(3,5-difluorophenyl)isoxazolidin-2-yl)(4-((5-fluoro-1H-indol-1-yl)methyl)cyclohexyl)methanone]	2
78	N#Cc1cc2ncn(C[C@H]3CC[C@H](C(=O)N4OCC[C@H]4c4cnccn4)CC3)c2cc1F [compound 97, trans-6-fluoro-1-((4-((S)-3-(pyrazin-2-yl)isoxazolidine-2-carbonyl)cyclohexyl)methyl)-1H-benzo[d]imidazole-5-carbonitrile]	214
32	N#Cc1cc2c(cc1F)ncn2C[C@H]1CC[C@H](C(=O)N2OCC[C@H]2c2cnccn2)CC1 [compound 98, trans-5-fluoro-1-((4-((S)-3-(pyrazin-2-yl)isoxazolidine-2-carbonyl)cyclohexyl)methyl)-1H-benzo[d]imidazole-6-carbonitrile]	84
37	N#Cc1cc(F)cc([C@@H]2CCON2C(=O)[C@H]2CC[C@H](Cn3ccc4nc(C#N)ccc43)CC2)c1 [compound 99, trans-1-[[4-[(3S)-3-(3-cyano-5-fluoro-phenyl)isoxazolidine-2-carbonyl]cyclohexyl]methyl]pyrrolo[3,2-b]pyridine-5-carbonitrile]	33
17	Cc1nn(C[C@H]2CC[C@H](C(=O)N3OCC[C@H]3c3cc(F)cc(C#N)c3)CC2)c2cc(C#N)cc(F)c12 [compound 100, trans-1-((4-((S)-3-(3-cyano-5-fluorophenyl)isoxazolidine-2-carbonyl)cyclohexyl)methyl)-4-fluoro-3-methyl-1H-indazole-6-carbonitrile]	4
18	Cc1nn(C[C@H]2CC[C@H](C(=O)N3OCC[C@H]3c3cc(F)cc(F)c3)CC2)c2cc(C#N)cc(F)c12 [compound 101, trans-1-((4-((S)-3-(3,5-difluorophenyl)isoxazolidine-2-carbonyl)cyclohexyl)methyl)-4-fluoro-3-methyl-1H-indazole-6-carbonitrile]	4
23	Cc1nn(C[C@H]2CC[C@H](C(=O)N3OCC[C@H]3c3cc(F)cc(C#N)c3)CC2)c2cc(C(N)=O)cc(F)c12 [compound 102, trans-1-((4-((S)-3-(3-cyano-5-fluorophenyl)isoxazolidine-2-carbonyl)cyclohexyl)methyl)-4-fluoro-3-methyl-1H-indazole-6-carboxamide]	37
23	Cc1nn(C[C@H]2CC[C@H](C(=O)N3OCC[C@H]3c3cc(F)cc(F)c3)CC2)c2cc(C(N)=O)cc(F)c12 [compound 103, trans-1-((4-((S)-3-(3,5-difluorophenyl)isoxazolidine-2-carbonyl)cyclohexyl)methyl)-4-fluoro-3-methyl-1H-indazole-6-carboxamide]	22
18	N#Cc1cc(F)cc([C@@H]2CCON2C(=O)[C@H]2CC[C@H](Cn3ccc4ccc(C(N)=O)cc43)CC2)c1 [compound 104, trans-1-((4-((S)-3-(3-cyano-5-fluorophenyl)isoxazolidine-2-carbonyl)cyclohexyl)methyl)-1H-indole-6-carboxamide]	5
15	NC(=O)c1ccc2ccn(C[C@H]3CC[C@H](C(=O)N4OCC[C@H]4c4cc(F)cc(F)c4)CC3)c2c1 [compound 105, trans-1-((4-((S)-3-(3,5-difluorophenyl)isoxazolidine-2-carbonyl)cyclohexyl)methyl)-1H-indole-6-carboxamide]	4
46	N#Cc1cncc([C@@H]2CCON2C(=O)[C@H]2CC[C@H](Cn3cnc4ccc(F)cc43)CC2)c1 [compound 106, trans-5-((S)-2-(4-((6-fluoro-1H-benzo[d]imidazol-1-yl)methyl)cyclohexane-1-carbonyl)isoxazolidin-3-yl)nicotinonitrile]	54
39	N#Cc1cncc([C@@H]2CCON2C(=O)[C@H]2CC[C@H](Cn3cnc4cc(F)ccc43)CC2)c1 [compound 107, trans-5-((S)-2-(4-((5-fluoro-1H-benzo[d]imidazol-1-yl)methyl)cyclohexane-1-carbonyl)isoxazolidin-3-yl)nicotinonitrile]	108
27	N#Cc1cncc([C@@H]2CCON2C(=O)[C@H]2CC[C@H](Cn3ccc4ncc(C#N)cc43)CC2)c1 [compound 108, trans-1-((4-((S)-3-(5-cyanopyridin-3-yl)isoxazolidine-2-carbonyl)cyclohexyl)methyl)-1H-pyrrolo[3,2-b]pyridine-6-carbonitrile]	18
19	Cc1ccc(C[C@H]2CC[C@H](C(=O)N3OCC[C@H]3c3cc(F)cc(C#N)c3)CC2)cc1C#N [compound 109, trans-5-((4-((S)-3-(3-cyano-5-fluorophenyl)isoxazolidine-2-carbonyl)cyclohexyl)methyl)-2-methylbenzonitrile]	1
22	Cc1cn(C[C@H]2CC[C@H](C(=O)N3OCC[C@H]3c3cc(F)cc(C#N)c3)CC2)c2cc(C(N)=O)ccc12 [compound 110, trans-1-((4-((S)-3-(3-cyano-5-fluorophenyl)isoxazolidine-2-carbonyl)cyclohexyl)methyl)-3-methyl-1H-indole-6-carboxamide]	11
27	Cc1cn(C[C@H]2CC[C@H](C(=O)N3OCC[C@H]3c3cc(F)cc(F)c3)CC2)c2cc(C(N)=O)ccc12 [compound 111, trans-1-((4-((S)-3-(3,5-difluorophenyl)isoxazolidine-2-carbonyl)cyclohexyl)methyl)-3-methyl-1H-indole-6-carboxamide]	10
23	N#Cc1cc(F)cc([C@@H]2CCON2C(=O)[C@H]2CC[C@H](Cn3cnc4ccc(F)cc43)CC2)c1 [compound 112, trans-3-fluoro-5-((S)-2-(4-((6-fluoro-1H-benzo[d]imidazol-1-yl)methyl)cyclohexane-1-carbonyl)isoxazolidin-3-yl)benzonitrile]	7
24	O=C([C@H]1CC[C@H](Cn2cnc3ccc(F)cc32)CC1)N1OCC[C@H]1c1cc(F)cc(F)c1 [compound 113, trans-((S)-3-(3,5-difluorophenyl)isoxazolidin-2-yl)(4-((6-fluoro-1H-benzo[d]imidazol-1-yl)methyl)cyclohexyl)methanone]	3
34	Cc1ccc([C@@H]2CCON2C(=O)[C@H]2C[C@H](Cn3cnc4cc(F)ccc43)C2)cc1 [compound 114, trans-(3-((5-fluoro-1H-benzo[d]imidazol-1-yl)methyl)cyclobutyl)((S)-3-(p-tolyl)isoxazolidin-2-yl)methanone]	174
31	O=C([C@H]1C[C@H](Cn2cnc3cc(F)ccc32)C1)N1OCC[C@H]1c1cc(F)cc(F)c1 [compound 115, trans-((S)-3-(3,5-difluorophenyl)isoxazolidin-2-yl)(3-((5-fluoro-1H-benzo[d]imidazol-1-yl)methyl)cyclobutyl)methanone]	138
57	N#Cc1cc(F)cc([C@@H]2CCON2C(=O)[C@H]2C[C@H](Cn3cnc4cc(F)ccc43)C2)c1 [compound 116, trans-3-fluoro-5-((S)-2-(3-((5-fluoro-1H-benzo[d]imidazol-1-yl)methyl)cyclobutane-1-carbonyl)isoxazolidin-3-yl)benzonitrile]	491
35	Cc1ccc([C@@H]2CCON2C(=O)[C@H]2CC[C@H](Cn3nc(C)cc3C)CC2)cc1 [compound 117, trans-(4-((3,5-dimethyl-1H-pyrazol-1-yl)methyl)cyclohexyl)((S)-3-(p-tolyl)isoxazolidin-2-yl)methanone]	54
23	Cc1cc(C)n(C[C@H]2CC[C@H](C(=O)N3OCC[C@H]3c3cc(F)cc(F)c3)CC2)n1 [compound 118, trans-((S)-3-(3,5-difluorophenyl)isoxazolidin-2-yl)(4-((3,5-dimethyl-1H-pyrazol-1-yl)methyl)cyclohexyl)methanone]	30
